Patent US3988466A, “Prevention of gastric lesions” (priority 1973, dated 1976)

What was measured:
[1] = Effect of L-glutamine on absorption of aspirin in rats (plasma salicylate level; Experiment A); format: in vivo, male Wistar strain rats; conditions: L-glutamine administered together with aspirin
Protocol: In this Experiment, 2 groups of male Wistar strain rats weighing about 280-320 g, each consisting of 12 animals are fixed in supine position. Under ether anesthesia, the carotid artery is cannulated for blood sampling. Upon recovery from the anesthesia, one group is treated with 1000 mg/kg of L-glutamine suspended in 1% carboxymethylcellulose solution and the other group (control) with 5 ml/kg of 1% carboxymethylcellulose solution alone, by oral administration. […] The same treatments are applied also to 2 groups of pylorus-ligated rats, each consisting of 5 animals.
The blood sample is centrifuged at 8,000 r.p.m. for 5 minutes and 20 μl of plasma is collected for the measurement of salicylate concentration. Salicylate concentration of plasma is determined according to the method of Lever & Powell [Lever, M. and Powell, J. C.: Biochem. Med., 7, 203 (1973)].

[2] = system: gastric secretion in pylorus-ligated rats; assay: Effect of L-glutamine on gastric secretion in pylorus-ligated rats (Experiment 4); format: in vivo, male Donryu strain rats; conditions: for Gastric juice volume / Pepsin concentration / Titrable acidity: 7 hours; for Acid output: volume × titrable acidity / 7 hours
Protocol: In this Experiment, 7 groups of male Donryu strain rats are used. After 24 hours of fasting, the pylorus of the animal is ligated in the same manner as described in Experiment 1. Six groups are treated in the same manner as described in Experiment 1 except for the injection of the solution of pontamine sky blue 6BX in saline. A seventh group (normal) is treated twice with 5 ml/kg of 1% carboxymethylcellulose solution.
After 7 hours of pylorus ligation, the animals are killed and the stomach is removed. The gastric juice is collected and the volume is measured. The gastric juice is titrated to pH 7.4 with 0.1N NaOH using an electromatic pH meter. The concentration of pepsin in the gastric juice is also determined according to Anson's hemoglobin method [Anson, M. L., J. Gen. Physiol.

[3] = L-glutamine 62.5 mg/kg, aspirin 100 mg/kg
[4] = L-glutamine 125 mg/kg, aspirin 100 mg/kg
[5] = L-glutamine 250 mg/kg, aspirin 100 mg/kg
[6] = L-glutamine 500 mg/kg, aspirin 100 mg/kg
[7] = L-glutamine 1000 mg/kg in presence of aspirin
[8] = L-glutamine 1,000 mg/kg, aspirin 100 mg/kg

## NC(=O)CC[C@H](N)C(=O)O [L-glutamine]
[1]
  effect on absorption of aspirin (in words): does not inhibit the absorption of aspirin
[2]; L-glutamine 62.5 mg/kg in presence of aspirin
  acid parameters (in words): almost the same as those of the control group
[2]; [3]
  Gastric juice volume: 12.3 ± 0.5 mL
  Pepsin concentration: 26.3 ± 0.5 mg/mL
  Titrable acidity: 56.2±3.8 mEq/L
  Acid output: 97.8±6.5 μEq/hr
[2]; [4]
  Gastric juice volume: 12.1 ± 0.6 mL
  Pepsin concentration: 25.5 ± 0.8 mg/mL
  Titrable acidity: 88.9±4.8 mEq/L
  Acid output: 154.0±12.1 μEq/hr
[2]; L-glutamine 250 mg/kg or more, aspirin 100 mg/kg
  appearance of gastric juices compared with control group: relatively clear
[2]; [5]
  Gastric juice volume: 12.5 ± 0.5 mL
  Pepsin concentration: 27.1 ± 0.7 mg/mL
  Titrable acidity: 108.0±4.2 mEq/L
  Acid output: 194.1±13.5 μEq/hr
[2]; L-glutamine 500 mg/kg in presence of aspirin
  change in acid parameters (in words): No significant change
[2]; [6]
  Gastric juice volume: 11.9 ± 0.4 mL
  Pepsin concentration: 25.4 ± 0.7 mg/mL
  Titrable acidity: 127.1±4.6 mEq/L
  Acid output: 215.5±10.3 μEq/hr
[2]; [7]
  effect on acid output (in words): considerably increases the titrable acidity and acid output
  effect on titrable acidity (in words): considerably increases the titrable acidity
[2]; [8]
  Gastric juice volume: 12.2 ± 0.3 mL
  Pepsin concentration: 23.6 ± 1.1 mg/mL
  Titrable acidity: 139.4±3.4 mEq/L
  Acid output: 243.9±8.1 μEq/hr
[2]; L-glutamine at a wide range of doses
  pepsin concentration (in words): maintained at a normal level
